The record followed here is ChEMBL document CHEMBL1127958, “Dual metalloprotease inhibitors. III. utilization of bicyclic and monocyclic diazepinone based mercaptoacetyls” (Bioorg Med Chem Lett, 1994).

One assay has as its target Neprilysin (Homo sapiens, UniProt P08473). Nature of the assay: In vitro inhibitory activity against neutral endopeptidase (NEP) was determined. The conditions noted are these: read-out: I50.
A further assay has as its system Rattus norvegicus. Nature of the assay: In vivo effective dose against angiotensin I induced pressor response after intravenous administration in normotensive rats. It counts as functional.
For assay [1], the target named is Angiotensin-converting enzyme (Rattus norvegicus) (UniProt P47820). Nature of the assay: In vitro inhibitory activity against angiotensin converting enzyme (ACE) in rat was determined. The conditions noted are these: read-out: I50.
Sequence of Angiotensin-converting enzyme (Rattus norvegicus) (P47820 whole entry, looked up): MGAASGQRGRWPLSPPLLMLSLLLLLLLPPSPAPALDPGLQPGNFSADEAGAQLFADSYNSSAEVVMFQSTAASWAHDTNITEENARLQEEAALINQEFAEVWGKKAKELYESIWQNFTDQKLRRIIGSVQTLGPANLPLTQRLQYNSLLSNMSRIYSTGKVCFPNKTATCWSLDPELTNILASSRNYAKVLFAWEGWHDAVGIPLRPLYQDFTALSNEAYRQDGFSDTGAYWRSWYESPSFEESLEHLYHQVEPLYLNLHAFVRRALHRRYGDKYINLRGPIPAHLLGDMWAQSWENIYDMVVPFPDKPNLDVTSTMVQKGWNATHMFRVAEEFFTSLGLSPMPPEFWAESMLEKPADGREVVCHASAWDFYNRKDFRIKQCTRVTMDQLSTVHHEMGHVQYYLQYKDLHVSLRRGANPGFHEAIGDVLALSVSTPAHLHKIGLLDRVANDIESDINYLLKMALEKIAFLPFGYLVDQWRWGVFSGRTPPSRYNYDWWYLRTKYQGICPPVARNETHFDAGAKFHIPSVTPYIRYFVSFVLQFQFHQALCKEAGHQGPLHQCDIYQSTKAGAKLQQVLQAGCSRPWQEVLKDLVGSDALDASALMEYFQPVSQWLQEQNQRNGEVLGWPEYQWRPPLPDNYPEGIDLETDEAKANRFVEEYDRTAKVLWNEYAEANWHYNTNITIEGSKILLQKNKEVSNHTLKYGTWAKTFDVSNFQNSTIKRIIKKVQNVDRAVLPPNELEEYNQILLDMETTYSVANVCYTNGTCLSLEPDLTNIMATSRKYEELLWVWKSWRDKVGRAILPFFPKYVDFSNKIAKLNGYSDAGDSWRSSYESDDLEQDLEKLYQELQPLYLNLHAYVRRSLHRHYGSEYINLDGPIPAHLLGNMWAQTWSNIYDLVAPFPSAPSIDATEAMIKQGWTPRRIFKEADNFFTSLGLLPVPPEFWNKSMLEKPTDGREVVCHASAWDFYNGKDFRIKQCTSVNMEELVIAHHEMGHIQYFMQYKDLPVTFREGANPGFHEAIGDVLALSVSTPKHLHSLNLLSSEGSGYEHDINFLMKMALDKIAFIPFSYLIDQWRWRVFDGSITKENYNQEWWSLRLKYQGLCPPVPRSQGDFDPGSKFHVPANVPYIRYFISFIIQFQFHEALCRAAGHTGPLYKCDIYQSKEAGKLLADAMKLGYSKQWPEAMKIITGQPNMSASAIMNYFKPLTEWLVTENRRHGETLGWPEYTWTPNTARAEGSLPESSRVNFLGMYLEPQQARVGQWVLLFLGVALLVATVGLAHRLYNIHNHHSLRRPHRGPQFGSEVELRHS

Sequence of Neprilysin (P08473 whole entry): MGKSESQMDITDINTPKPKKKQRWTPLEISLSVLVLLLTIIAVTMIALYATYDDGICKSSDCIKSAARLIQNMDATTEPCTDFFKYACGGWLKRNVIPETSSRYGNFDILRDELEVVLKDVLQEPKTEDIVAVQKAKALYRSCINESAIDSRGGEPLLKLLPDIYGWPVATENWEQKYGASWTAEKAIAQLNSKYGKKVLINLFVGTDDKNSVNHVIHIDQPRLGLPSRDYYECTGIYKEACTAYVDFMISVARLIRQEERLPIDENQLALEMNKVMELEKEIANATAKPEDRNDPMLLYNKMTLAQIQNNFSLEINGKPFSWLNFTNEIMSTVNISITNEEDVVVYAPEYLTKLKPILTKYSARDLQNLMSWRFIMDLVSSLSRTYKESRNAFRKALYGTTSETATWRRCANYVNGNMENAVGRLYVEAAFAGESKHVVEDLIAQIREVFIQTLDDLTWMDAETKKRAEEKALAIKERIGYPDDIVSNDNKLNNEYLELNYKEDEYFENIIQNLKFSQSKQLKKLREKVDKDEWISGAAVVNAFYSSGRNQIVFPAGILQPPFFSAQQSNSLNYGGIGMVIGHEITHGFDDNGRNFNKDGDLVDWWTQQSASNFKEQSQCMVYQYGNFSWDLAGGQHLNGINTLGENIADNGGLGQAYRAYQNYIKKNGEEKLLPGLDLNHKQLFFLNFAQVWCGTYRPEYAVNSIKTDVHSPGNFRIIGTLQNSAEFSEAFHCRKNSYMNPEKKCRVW

By ED50 is commonly meant the midpoint of the dose-response relation. A higher ED50 goes with weaker potency. On to `O=C(N[C@H]1CCCN2CCC[C@@H](C(=O)O)N2C1=O)[C@@H](S)Cc1ccccc1`, for which the IC50 at Neprilysin came out at 3 nM. For the same molecule, in the assay with Rattus norvegicus, the ED50 amounted to 0.01 µmol/kg.
As for `O=C(O)CN1NCCC[C@H](NC(=O)[C@@H](S)Cc2ccccc2)C1=O`, the IC50 on Neprilysin was determined as 486 nM.
The same measure, in the same setting: next, `CN1CCC[C@H](NC(=O)[C@@H](S)Cc2ccccc2)C(=O)N1CC(=O)O`: 484 nM; `CCCN1CCC[C@H](NC(=O)[C@@H](S)Cc2ccccc2)C(=O)N1CC(=O)O`: 1490 nM.
Still for that read-out and setting: next, `CCCN1C(=O)CC[C@H](NC(=O)[C@@H](S)Cc2ccccc2)C(=O)N1CC(=O)O`: 1920 nM.
As to `O=C(N[C@H]1CCC(=O)N2CCC[C@@H](C(=O)O)N2C1=O)[C@@H](S)Cc1ccccc1`, at Neprilysin, the IC50 turned out to be 16 nM. Further, the 50% effective dose (ED50) in the assay on Rattus norvegicus stood at 0.23 µmol/kg.
Turning to `CN1C(=O)CC[C@H](NC(=O)[C@@H](S)Cc2ccccc2)C(=O)N1CC(=O)O`, the IC50 on Neprilysin came to 55 nM. The ED50 with Rattus norvegicus is 0.13 µmol/kg.
The matching figures for `O=C(N[C@H]1CCCN2CC[C@@H](C(=O)O)N2C1=O)[C@@H](S)Cc1ccccc1`: 22 nM and 0.12 µmol/kg.
Turning to `O=C(N[C@H]1CCC(=O)N2CC[C@@H](C(=O)O)N2C1=O)[C@@H](S)Cc1ccccc1`, on Neprilysin, the IC50 is 140 nM.
For the molecule `O=C(O)CN1C(=O)[C@@H](NC(=O)[C@@H](S)Cc2ccccc2)CCc2ccccc21`, in the assay on Rattus norvegicus, the ED50 stood at 0.02 µmol/kg. For the same molecule, in assay [1], the IC50 stood at 12 nM.
